Results on three molecules are retold here after US20150342954A1, “2-BENZYL, 3-(PYRIMIDIN-2-YL) SUBSTITUTED PYRAZOLES USEFUL AS SGC STIMULATORS” (IRONWOOD PHARMACEUTICALS, INC., priority 2011, published 2015).

Read-outs that look alike come from different tables or passages of the source.

Experiment [1] concerns the target T1, Human soluble guanylate cyclase enzyme (hsGC) (Homo sapiens, UniProt Q02108+Q02153).
T1 construct: purchased Enzo Inc. ALX-201-177
T1 sequence (Q02153 1-619): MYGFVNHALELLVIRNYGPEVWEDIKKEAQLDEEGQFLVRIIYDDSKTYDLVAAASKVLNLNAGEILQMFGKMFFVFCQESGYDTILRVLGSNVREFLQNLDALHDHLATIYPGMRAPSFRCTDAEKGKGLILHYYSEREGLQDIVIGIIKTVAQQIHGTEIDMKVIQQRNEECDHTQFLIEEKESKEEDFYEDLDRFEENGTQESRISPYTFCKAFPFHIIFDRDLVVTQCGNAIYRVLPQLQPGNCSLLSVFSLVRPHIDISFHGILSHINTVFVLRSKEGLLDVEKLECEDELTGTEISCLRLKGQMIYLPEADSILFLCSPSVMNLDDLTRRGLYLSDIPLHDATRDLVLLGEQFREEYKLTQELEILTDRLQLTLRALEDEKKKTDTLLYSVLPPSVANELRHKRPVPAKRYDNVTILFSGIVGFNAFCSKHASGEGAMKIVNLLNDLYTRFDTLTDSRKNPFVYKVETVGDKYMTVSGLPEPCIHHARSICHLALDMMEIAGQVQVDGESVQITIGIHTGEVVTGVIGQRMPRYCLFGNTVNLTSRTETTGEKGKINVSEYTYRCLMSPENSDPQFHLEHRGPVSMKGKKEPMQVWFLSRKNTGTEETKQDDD
T1 sequence (Q02108 1-690): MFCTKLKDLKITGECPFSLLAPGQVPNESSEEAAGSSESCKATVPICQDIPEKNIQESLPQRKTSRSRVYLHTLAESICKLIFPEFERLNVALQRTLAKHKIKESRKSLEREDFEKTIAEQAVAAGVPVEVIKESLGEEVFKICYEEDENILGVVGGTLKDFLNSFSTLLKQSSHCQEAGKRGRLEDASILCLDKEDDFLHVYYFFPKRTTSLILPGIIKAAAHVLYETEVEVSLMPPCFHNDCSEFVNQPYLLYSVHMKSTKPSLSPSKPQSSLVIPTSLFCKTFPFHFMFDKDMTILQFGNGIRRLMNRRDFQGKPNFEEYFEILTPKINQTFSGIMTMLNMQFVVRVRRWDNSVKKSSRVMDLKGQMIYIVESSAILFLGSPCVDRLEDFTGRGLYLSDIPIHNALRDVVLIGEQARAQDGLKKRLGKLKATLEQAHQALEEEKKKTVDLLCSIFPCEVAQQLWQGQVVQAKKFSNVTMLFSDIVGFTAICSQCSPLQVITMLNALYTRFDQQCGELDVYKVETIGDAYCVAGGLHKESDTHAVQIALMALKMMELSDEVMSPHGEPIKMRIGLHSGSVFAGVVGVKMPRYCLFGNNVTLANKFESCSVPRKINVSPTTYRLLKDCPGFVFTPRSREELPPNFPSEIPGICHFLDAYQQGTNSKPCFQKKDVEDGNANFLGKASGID
Nature of the experiment: Purified human sGC enzyme activity assay (without SNP). Type of experiment: biochemical. To be noted: compound at 30 μM, absence of SNP; fold over DMSO control; Table 5A. Put shortly: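 Purified human sGC (5 ng) in 0.1 M Tris pH 8.0, 2 mM DTT, 2 mM MgCl2, 300 μM GTP, 1 mM IBMX, with compound at 10 or 30 μM final, 30 min at 37° C.; methanol-stopped. cGMP quantified against a standard curve; specific activity expressed as fold-change over DMSO control.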

Experiment [2] addresses T2, soluble guanylate cyclase (sGC) (Homo sapiens, UniProt Q02108+Q02153).
T2 construct: endogenously expressing soluble guanylate cyclase (sGC); endogenous in cells; host or cells: HEK293
T2 sequence (Q02153 1-619): T1 sequence (Q02153 1-619)
T2 sequence (Q02108 1-690): T1 sequence (Q02108 1-690)
Briefly: sGC-HEK-cGMP assay (run with SNP incubation). It is filed as cell-based. To be noted: for Emax: Table 3A, 10 μM SNP, 100% = 30 μM BAY 41-2272 with 10 μM SNP, read-out: HEK assay Emax-unconstrained (Percent); for HEK MEC-10: concentration that would elicit 10% of the Emax in the presence of 10 μM SNP; for HEK MEC-10 / EC50: Table 3D; for EC50: in the presence of 10 μM SNP. Put shortly: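 HEK293 cells with endogenous sGC were pre-treated 15 min at 37 °C with 0.5 mM IBMX, then exposed to test compound plus sodium nitroprusside for 10 min at 37 °C. Cells were lysed in 0.1 M HCl (4 °C, 30 min), and cGMP was quantified by LC/MS against a standard curve. EC50 values came from concentration-response curves.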

[3] abbreviates: top of concentration-response curve not fitted to 100%.
[4] abbreviates: top of concentration-response curve not fitted to 100%, read-out: HEK assay EC50-unconstrained.

Broadly, the Emax is the maximal effect, on the per cent scale that the assay sets. What is called EC50 is the concentration giving half of the maximal effect. Turning to `Nc1nc(-c2cc(-c3ccon3)n(Cc3ccccc3F)n2)ncc1NC(=O)C1(c2ccccc2)CC1` [Compound 27], in experiment [1], the “Enzyme Activity (increase at 30 μM without SNP)” value is listed as “D (10 or <20 fold increase)”. Moreover, the Emax in experiment [2] (setting [3]) lay in the range of 80 to 100%. In experiment [2], the “HEK MEC-10” value is given as “B (0.01 to <0.1 μM)”. Besides, the results for the EC50 in experiment [2] (read-out: HEK assay EC50) and in experiment [2] (setting [4]) were less than 20000 nM and 10 to 500 nM, respectively.

Regarding `Nc1nc(-c2cc(-c3ccon3)n(Cc3ccccc3F)n2)ncc1NC(=O)C1(F)CC1` [Compound 35], the “Enzyme Activity (increase at 30 μM without SNP)” value in experiment [1] is listed as “D (10 or <20 fold increase)”. The Emax in experiment [2] (setting [3]) was in the range of 80 to 100%. The “HEK MEC-10” value in experiment [2] is listed as “A (0.001 to <0.01 μM)”. Moreover, the EC50 in experiment [2] (read-out: HEK assay EC50) is less than 20000 nM; in experiment [2] (setting [4]) it was 10 to 500 nM.

For `Nc1nc(-c2cc(-c3ccon3)n(Cc3cccc(F)c3F)n2)ncc1NC(=O)C1(C(F)(F)F)CC1` [Compound 40], the “Enzyme Activity (increase at 30 μM without SNP)” value in experiment [1] is listed as “C (5 to <10 fold increase)”. In addition, in experiment [2] (setting [3]), the Emax is 80 to 100%. For the same molecule, in experiment [2], the “HEK MEC-10” value is on record as “C (0.1 to <1 μM)”. In addition, the EC50 in experiment [2] (read-out: HEK assay EC50) was less than 20000 nM; in experiment [2] (setting [4]), 10 to 500 nM.
